Results taken from patent publication US10028956B2, “Methods of treating various cancers using an AXL/cMET inhibitor in combination with other agents” (Ignyta, Inc., priority 2013, dated 2018).
Marks after values point to notes of the source that are not given here.

Experiments:
c-Met [1] = target: T1, c-Met (Homo sapiens, UniProt P08581); assay: Dissociation from c-Met, LanthaScreen Eu-kinase binding assay
Description: Assay buffer was prepared as for association, and used for all dilutions. A 5-μL aliquot of 80 nM LanthaScreen Eu-anti-GST antibody:20 nM GST-tagged enzyme mix was added to the Greiner low volume white 384-well plate, with antibody only added to control wells. Compound (100 nL) in DMSO was added by pintool at 2000-fold over the final assay concentration. DMSO was added to no inhibitor control wells. After a one-hour incubation at ambient temperature to allow formation of the enzyme-inhibitor complex, 2 μL of the reaction mix was transferred to a 384 Optiplate (PerkinElmer) and 78 μL of kinase tracer 236 was added. The final tracer concentration was 100 nM for AXL and 200 nM for c-Met. Readings were immediately initiated and total of 60 time points were taken at 2-min intervals, at 25° C. or 37° C. The background subtracted ratio was normalized to the no inhibitor control to calculate the % tracer bound, which was plotted with respect to time. The data was fitted to the one phase association model in GraphPad Prism (La Jolla Calif.).

[2] = tested on: EBC-1 Human NSCLC xenografts; assay: Discontinuous and alternate dosing schedules in EBC-1 xenografts; type: in vivo, mice; conditions: 10 mg/kg oral
Description: After a period of 7 days of continuous dosing, animals were then switched to either a 7 day on/7 day off 10 mg/kg qd dosing regimen, or intermittent twice weekly (q2d) or thrice weekly (q3d) oral dosing at a 10 mg/kg qd dose for a total of 21 days.

[3] = tested on: CTG-0159 primary NSCLC human TumorGraft; assay: NSCLC TumorGraft model CTG-0159; type: in vivo, mice; conditions: CTG-0159, 14 days
Description: Methods (for the experiments shown in FIGS. 10 and 11) • Female immunocompromised nu/nu mice (Harlan) between 6-9 weeks of age were housed on irradiated papertwist-enriched ⅛″ corncob bedding (Sheperd) in individual HEPA ventilated cages (Innocage® IVC, Innovive USA) on a 12-hour light-dark cycle at 68-74° F. (20-23° C.) and 30-70% humidity. Animals were fed water ad libitum (reverse osmosis, 2 ppm Cl2) and an irradiated Test rodent diet (Teklad 2919) consisting of 19% protein, 9% fat, and 4% fiber. • Tumor Models: Champions TumorGraft models of NSCLC are owned by Champions Oncology. In this study, animals were implanted unilaterally on the right flank with tumor fragments harvested from host animals. […] Erlotinib (manufacturer: OSI Pharmaceuticals; National Drug Code: 50242-062-01; Lot #: US0002) was formulated using 100% PEG-400 as the vehicle according to manufacturer's specifications.
Efficacy measurements: Beginning Day 0, tumor dimensions were measured twice weekly by digital caliper (Fowler Ultra-Cal IV) and data including individual and mean estimated tumor volumes (Mean TV±SEM) were recorded for each group; tumor volume was calculated using the formula TV=width^2×length×0.52. At study completion, percent tumor growth inhibition (% TGI) values were calculated and reported for each treatment group (T) versus control (C) using initial (i) and final (f) tumor measurements by the formula: % TGI=1−Tf−Ti/Cf−C; single agent or combination therapies resulting in a TGI>50 at study completion are considered active in the tested model at the evaluated treatment regimen according to NCI guidelines. […] If the PR persisted until study completion, percent tumor regression (% TR) was determined using the formula: % TR=1−Tf/Ti×100; a mean value was calculated if multiple PR mice occurred in one group. […] Statistical differences in tumor volume were determined using a two-tailed One-Way Analysis of Variance (ANOVA) followed by the Dunett's multiple comparisons test comparing treated groups with control and combinations with standard agent alone when possible. […]

c-Met [4] = target: T1, c-Met; assay: Cellular c-Met inhibition in GTL-16 cells; type: cell-based; parameters: endogenous in cells; host or cells: GTL-16 human gastric carcinoma cells
AXL = target: T2, AXL (Homo sapiens, UniProt P30530); assay: Cellular potency in NCI-H1299 human NSCL cells; type: cell-based; parameters: endogenous in cells; host or cells: NCI-H1299 human NSCLC cells (culture; subcutaneous xenograft in mice)
T2 sequence (P30530 26-894): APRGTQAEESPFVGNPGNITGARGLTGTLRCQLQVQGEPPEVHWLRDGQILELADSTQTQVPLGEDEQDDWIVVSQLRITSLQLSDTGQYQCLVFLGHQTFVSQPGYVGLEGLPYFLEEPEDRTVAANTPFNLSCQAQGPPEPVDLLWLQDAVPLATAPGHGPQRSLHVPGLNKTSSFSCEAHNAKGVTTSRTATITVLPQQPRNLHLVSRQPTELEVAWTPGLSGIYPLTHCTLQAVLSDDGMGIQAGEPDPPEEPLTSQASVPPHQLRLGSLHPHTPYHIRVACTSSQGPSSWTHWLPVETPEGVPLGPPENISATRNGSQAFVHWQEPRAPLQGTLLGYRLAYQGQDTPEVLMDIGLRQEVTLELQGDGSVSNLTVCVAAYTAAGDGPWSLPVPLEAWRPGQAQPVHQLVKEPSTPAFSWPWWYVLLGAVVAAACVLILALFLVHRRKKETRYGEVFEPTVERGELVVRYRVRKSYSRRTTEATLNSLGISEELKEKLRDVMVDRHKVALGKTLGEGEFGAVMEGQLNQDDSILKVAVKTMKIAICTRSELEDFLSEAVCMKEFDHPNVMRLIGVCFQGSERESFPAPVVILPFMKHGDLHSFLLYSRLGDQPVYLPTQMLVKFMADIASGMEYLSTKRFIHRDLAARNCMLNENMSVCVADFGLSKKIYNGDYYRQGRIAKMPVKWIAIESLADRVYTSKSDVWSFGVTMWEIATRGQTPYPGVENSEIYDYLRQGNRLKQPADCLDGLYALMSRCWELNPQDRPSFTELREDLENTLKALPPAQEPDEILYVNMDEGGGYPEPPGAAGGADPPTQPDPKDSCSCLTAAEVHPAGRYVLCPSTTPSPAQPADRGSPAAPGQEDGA

T1 sequence (P08581 25-1390): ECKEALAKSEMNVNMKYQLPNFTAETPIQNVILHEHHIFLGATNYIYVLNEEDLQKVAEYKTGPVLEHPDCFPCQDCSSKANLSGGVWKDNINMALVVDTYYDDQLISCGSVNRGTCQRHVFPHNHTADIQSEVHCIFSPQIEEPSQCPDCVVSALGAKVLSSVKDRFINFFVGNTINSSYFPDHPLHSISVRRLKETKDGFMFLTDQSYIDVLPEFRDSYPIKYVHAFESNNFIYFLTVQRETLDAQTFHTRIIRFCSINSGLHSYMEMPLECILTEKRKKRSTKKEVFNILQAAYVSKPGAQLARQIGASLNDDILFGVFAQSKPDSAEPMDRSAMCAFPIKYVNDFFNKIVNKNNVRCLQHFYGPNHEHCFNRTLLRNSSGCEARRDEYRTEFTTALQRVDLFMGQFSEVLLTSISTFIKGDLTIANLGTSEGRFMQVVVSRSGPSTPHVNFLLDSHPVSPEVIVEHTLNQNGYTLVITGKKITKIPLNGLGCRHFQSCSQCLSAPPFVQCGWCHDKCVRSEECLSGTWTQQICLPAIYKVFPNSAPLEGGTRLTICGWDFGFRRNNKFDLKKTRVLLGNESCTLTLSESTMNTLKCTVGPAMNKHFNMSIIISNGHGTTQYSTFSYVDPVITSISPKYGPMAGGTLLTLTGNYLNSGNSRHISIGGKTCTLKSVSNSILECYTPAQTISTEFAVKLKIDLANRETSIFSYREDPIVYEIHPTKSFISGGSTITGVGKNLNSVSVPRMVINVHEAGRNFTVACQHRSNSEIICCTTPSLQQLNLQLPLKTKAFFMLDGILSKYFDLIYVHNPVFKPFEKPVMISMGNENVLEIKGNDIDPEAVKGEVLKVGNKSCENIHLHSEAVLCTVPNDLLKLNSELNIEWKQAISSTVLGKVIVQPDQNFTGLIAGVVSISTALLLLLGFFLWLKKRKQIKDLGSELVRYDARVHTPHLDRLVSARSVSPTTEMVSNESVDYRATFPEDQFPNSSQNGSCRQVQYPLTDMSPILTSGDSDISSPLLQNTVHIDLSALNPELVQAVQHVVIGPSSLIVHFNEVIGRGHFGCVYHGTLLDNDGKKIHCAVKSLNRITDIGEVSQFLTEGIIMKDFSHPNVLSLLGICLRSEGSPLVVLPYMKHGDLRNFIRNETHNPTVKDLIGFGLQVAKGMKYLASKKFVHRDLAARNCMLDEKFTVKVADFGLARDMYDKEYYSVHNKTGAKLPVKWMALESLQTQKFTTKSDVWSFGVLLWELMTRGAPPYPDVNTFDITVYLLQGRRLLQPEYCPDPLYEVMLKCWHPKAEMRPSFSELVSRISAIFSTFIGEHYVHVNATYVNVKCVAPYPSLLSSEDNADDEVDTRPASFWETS

COc1cc2nccc(Oc3ccc(NC(=O)c4cn(C(C)C)c(=O)n(-c5ccc(F)cc5)c4=O)cc3F)c2cc1OC [CEP-40783, 3-(4-Fluorophenyl)-1-isopropyl-2,4-dioxo-1,2,3,4-tetrahydropyrimidine-5-carboxylic acid [4-(6,7-dimethoxyquinolin-4-yloxy)-3-fluorophenyl]-amide]
off-rate from c-Met (c-Met [1]; 25° C.): very slow | dissociation rate from c-Met at higher temperature (c-Met [1]; 37° C. versus 25° C.): slightly enhanced | partial responses ([2]; every 2 days (q2d)): 40% | partial responses ([2]; every 3 days (q3d)): 70% | complete tumor regressions, % of animals ([2]; q2d dosing group): 20% | partial responses ([2]; qd, 7 days on/7 days off (qd×7)): 40% | complete tumor regressions, % of animals ([2]; qd×7 dosing group): 10% | % Tumor Growth Inhibition ([3]; 10 mg/kg po/qd): 46%* | % Tumor Growth Inhibition ([3]; 30 mg/kg po/qd): 66%*† | IC50 (c-Met [4]): 6 nM | IC50 (AXL): 0.1 nM
